Measurements taken from ChEMBL document CHEMBL1142219, “Discovery of platencin, a dual FabF and FabH inhibitor with in vivo antibiotic properties” (Proc Natl Acad Sci U S A, 2007).
pIC50: −log10 of the molar value. In brackets after ≈: the same amount, converted by molar mass. Activity calls are given as the source filed them. No cut-off for these calls is given here.

Key:
[1] = Toxicity in human RBC assessed as drug level causing hemolysis; type: cell-based; conditions: erythrocyte
Candida albicans = assay: Antifungal activity against Candida albicans; type: functional
[2] = Inhibition of Staphylococcus aureus FabH assessed as reduced accumulation of acetoacetyl-ACP by FabF/FabH PAGE elongation assay
Staphylococcus aureus [3] = assay: Inhibition of DNA biosynthesis in Staphylococcus aureus upto 50 ug/ml in whole cell activity assay; type: functional, organism-based
HeLa = assay: Cytotoxicity against human HeLa cells by MTT assay; type: functional, cell-based
Staphylococcus aureus [4] = assay: Antibacterial activity against vancomycin-intermediate resistant Staphylococcus aureus; type: functional
Staphylococcus aureus [5] = assay: Inhibition of protein biosynthesis in Staphylococcus aureus upto 50 ug/ml in whole cell activity assay; type: functional, organism-based
[6] = target: T1, Malonyl CoA-acyl carrier protein transacylase (Staphylococcus aureus) (UniProt Q93QD4); assay: Inhibition of Staphylococcus aureus FabD assessed as reduced malonyl-ACP levels
T1 sequence (whole entry): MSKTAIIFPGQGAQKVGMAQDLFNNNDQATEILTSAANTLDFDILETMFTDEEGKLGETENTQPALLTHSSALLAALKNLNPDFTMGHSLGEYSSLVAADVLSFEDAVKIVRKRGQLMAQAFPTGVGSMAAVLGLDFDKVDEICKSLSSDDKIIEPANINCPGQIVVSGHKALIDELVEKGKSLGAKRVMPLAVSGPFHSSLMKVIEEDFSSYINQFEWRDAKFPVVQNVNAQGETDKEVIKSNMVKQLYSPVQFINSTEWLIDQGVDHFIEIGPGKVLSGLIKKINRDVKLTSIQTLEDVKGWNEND

Staphylococcus aureus [7] = assay: Inhibition of cell wall biosynthesis in Staphylococcus aureus upto 50 ug/ml in whole cell activity assay; type: functional, organism-based
Escherichia coli [8] = assay: Antibacterial activity against wild type Escherichia coli; type: functional
Streptococcus pneumoniae [9] = assay: Antibacterial activity against Streptococcus pneumoniae; type: functional
Streptococcus pneumoniae [10] = assay: Inhibition of fatty acid synthesis in Streptococcus pneumoniae in whole cell activity assay; type: functional, organism-based
Staphylococcus aureus [11] = assay: Antibacterial activity against methicillin-resistant Staphylococcus aureus; type: functional
Staphylococcus aureus [12] = assay: Antibacterial activity against Staphylococcus aureus expressing antisense fabF assessed as drug level causing >5 mm zone of inhibition after 18 hrs by agar diffusion two plate differential sensitivity antisense assay; type: functional
Staphylococcus aureus [13] = assay: Antibacterial activity against methicillin and macrolide-resistant Staphylococcus aureus; type: functional
Staphylococcus aureus [14] = assay: Antibacterial activity against methicillin and linezolid-resistant Staphylococcus aureus; type: functional
Staphylococcus aureus [15] = assay: Antibacterial activity against Staphylococcus aureus in presence of serum; type: functional
Staphylococcus aureus [16] = assay: Inhibition of RNA biosynthesis in Staphylococcus aureus upto 50 ug/ml in whole cell activity assay; type: functional, organism-based
[17] = Inhibition of Staphylococcus aureus FabH by direct binding assay
Enterococcus faecalis = assay: Antibacterial activity against macrolide-resistant Enterococcus faecalis; type: functional
[18] = Inhibition of Staphylococcus aureus FabF assessed as reduced accumulation of long chain beta-ketoacyl-ACP by FabF/FabH PAGE elongation assay
Staphylococcus aureus [19] = assay: Inhibition of fatty acid synthesis in Staphylococcus aureus in whole cell activity assay; type: functional, organism-based
Staphylococcus aureus [20] = assay: Antibacterial activity against methicillin-sensitive Staphylococcus aureus; type: functional
Enterococcus faecium = assay: Antibacterial activity against vancomycin-resistant Enterococcus faecium; type: functional
Escherichia coli [21] = assay: Antibacterial activity against efflux negative-tolC mutant containing Escherichia coli; type: functional
Staphylococcus aureus [22] = assay: Inhibition of Staphylococcus aureus FabF assessed as reduced accumulation of long chain beta-ketoacyl-ACP at 20 ug/ml by FabF/FabH PAGE elongation assay
Staphylococcus aureus [23] = assay: Inhibition of Staphylococcus aureus FabF assessed as reduced accumulation of long chain beta-ketoacyl-ACP at 2 ug/ml by FabF/FabH PAGE elongation assay
[24] = Inhibition of Staphylococcus aureus FabF by direct binding assay
Staphylococcus aureus [25] = assay: Antibacterial activity against methicillin-sensitive Staphylococcus aureus infected mouse kidney assessed as log reduction of bacterial count at 150 ug/hr after 24 hrs; type: functional
[26] = Inhibition of Staphylococcus aureus FabH assessed as reduced accumulation of long chain beta-ketoacyl-ACP by FabF/FabH PAGE elongation assay
Mus musculus = species: Mus musculus; assay: Toxicity in methicillin-sensitive Staphylococcus aureus infected mouse model at 150 ug/hr after 24 hrs; type: organism-based; conditions: in vivo
[27] = Inhibition of Staphylococcus aureus FabF assessed as reduced accumulation of acetoacetyl-ACP by FabF/FabH PAGE elongation assay

For `O=C(N[C@H](CO)[C@H](O)c1ccc([N+](=O)[O-])cc1)C(Cl)Cl` [CHLORAMPHENICOL], which Activity [1] is on record?
Its Activity is > 64 µg/mL.

Which MIC (Candida albicans) does the source give for `CC12C[C@@]34C=CC(=O)[C@@](C)(CCC(=O)Nc5c(O)ccc(C(=O)O)c5O)C3[C@H](CC1C4)O2` (stereo partly specified) [PLATENSIMYCIN] here?
The MIC was > 64 µg/mL.

What about the pIC50 [2] of the same compound?
Its pIC50 is 3.61.

And the Activity (Staphylococcus aureus [3])?
Its Activity is “inactive”.

And the IC50 (HeLa)?
The IC50 was > 1000 µg/mL.

What about the MIC (Staphylococcus aureus [4]) of the same compound?
Its MIC is 0.5 µg/mL (≈ 1.13 µM).

What about the Activity (Staphylococcus aureus [5]) of the same compound?
Its Activity is “inactive”.

What about the Activity [6] of the same compound?
Its Activity is “inactive”.

And the Activity (Staphylococcus aureus [7])?
Its Activity is “inactive”.

What about the MIC (Escherichia coli [8]) of the same compound?
The MIC was > 64 µg/mL.

And the MIC (Streptococcus pneumoniae [9])?
Its MIC is 1 µg/mL (≈ 2.27 µM).

And the IC50 (Streptococcus pneumoniae [10])?
The IC50 was 0.8 µg/mL (≈ 1.81 µM).

What about the MIC (Staphylococcus aureus [11]) of the same compound?
The MIC was 0.5 µg/mL (≈ 1.13 µM).

And the Activity (Staphylococcus aureus [12])?
Its Activity is 0.004 µg.

What about the MIC (Staphylococcus aureus [13]) of the same compound?
The MIC was 0.5 µg/mL (≈ 1.13 µM).

What about the MIC (Staphylococcus aureus [14]) of the same compound?
The MIC was 1 µg/mL (≈ 2.27 µM).

And the MIC (Staphylococcus aureus [15])?
The MIC was 2 µg/mL.

What about the Activity (Staphylococcus aureus [16]) of the same compound?
The Activity was “inactive”.

What about the pIC50 [17] of the same compound?
The pIC50 was 4.17.

What about the MIC (Enterococcus faecalis) of the same compound?
Its MIC is 1 µg/mL (≈ 2.27 µM).

And the Activity [1]?
The Activity was > 67 µg/mL.

And the pIC50 [18]?
Its pIC50 is 6.54.

What about the IC50 (Staphylococcus aureus [19]) of the same compound?
Its IC50 is 0.1 µg/mL (≈ 0.227 µM).

And the MIC (Staphylococcus aureus [20])?
The MIC was 0.5 µg/mL (≈ 1.13 µM).

What about the MIC (Enterococcus faecium) of the same compound?
The MIC was 0.1 µg/mL (≈ 0.227 µM).

And the MIC (Escherichia coli [21])?
The MIC was 16 µg/mL (≈ 36.2 µM).

With `O=C(O)c1cc2cc(OCc3c(Cl)cccc3Cl)ccc2n1Cc1cc2c(cc1Cl)OCO2` as the compound, how does the pIC50 [2] read?
Its pIC50 is 5.40.

What about the inhibition (Staphylococcus aureus [22]) of the same compound?
The inhibition was 90%.

And the inhibition (Staphylococcus aureus [23])?
The inhibition was 50%.

Which MIC (Candida albicans) does the source give for `C=C1C[C@@]23C=CC(=O)[C@@](C)(CCC(=O)Nc4c(O)ccc(C(=O)O)c4O)[C@@H]2C[C@@H]1CC3` [PLATENCIN] here?
Its MIC is > 64 µg/mL.

What about the pIC50 [24] of the same compound?
Its pIC50 is 6.95.

And the Activity (Staphylococcus aureus [25])?
The Activity was 3.

And the IC50 (HeLa)?
Its IC50 is > 100 µg/mL.

And the MIC (Staphylococcus aureus [4])?
The MIC was 0.5 µg/mL (≈ 1.18 µM).

And the pIC50 [26]?
The pIC50 was 5.04.

What about the Activity [6] of the same compound?
Its Activity is “inactive”.

What about the MIC (Escherichia coli [8]) of the same compound?
The MIC was > 64 µg/mL.

And the MIC (Streptococcus pneumoniae [9])?
Its MIC is 4 µg/mL (≈ 9.4 µM).

And the IC50 (Streptococcus pneumoniae [10])?
The IC50 was 2.7 µg/mL (≈ 6.35 µM).

What about the MIC (Staphylococcus aureus [11]) of the same compound?
The MIC was 1 µg/mL (≈ 2.35 µM).

What about the Activity (Staphylococcus aureus [12]) of the same compound?
The Activity was 0.002 µg.

And the MIC (Staphylococcus aureus [13])?
The MIC was 1 µg/mL (≈ 2.35 µM).

And the MIC (Staphylococcus aureus [14])?
Its MIC is 1 µg/mL (≈ 2.35 µM).

What about the MIC (Staphylococcus aureus [15]) of the same compound?
The MIC was 8 µg/mL.

And the pIC50 [17]?
The pIC50 was 4.79.

And the MIC (Enterococcus faecalis)?
Its MIC is 2 µg/mL (≈ 4.7 µM).

And the Activity [1]?
Its Activity is > 67 µg/mL.

And the Activity (Mus musculus)?
The Activity was “Non-toxic”.

What about the IC50 (Staphylococcus aureus [19]) of the same compound?
Its IC50 is 0.19 µg/mL (≈ 0.447 µM).

What about the MIC (Staphylococcus aureus [20]) of the same compound?
The MIC was 0.5 µg/mL (≈ 1.18 µM).

And the MIC (Enterococcus faecium)?
Its MIC is < 0.06 µg/mL.

And the pIC50 [27]?
The pIC50 was 5.34.

And the MIC (Escherichia coli [21])?
The MIC was 2 µg/mL (≈ 4.7 µM).

Which Activity [1] does the source give for `C[C@@H]1[C@H](O)[C@@H](C)/C=C/C=C/C=C/C=C/C=C/C=C/C=C/[C@H](O[C@@H]2O[C@H](C)[C@@H](O)[C@H](N)[C@@H]2O)C[C@@H]2O[C@](O)(C[C@@H](O)C[C@@H](O)[C@H](O)CC[C@@H](O)C[C@@H](O)CC(=O)O[C@H]1C)C[C@H](O)[C@H]2C(=O)O` [AMPHOTERICIN B] here?
The Activity was 2 µg/mL.

What does the source list for `CC(=O)NC[C@H]1CN(c2ccc(N3CCOCC3)c(F)c2)C(=O)O1` [LINEZOLID]?
MIC (Candida albicans): > 64 µg/mL; IC50 (HeLa): > 100 µg/mL; MIC (Escherichia coli [8]): > 64 µg/mL; MIC (Staphylococcus aureus [14]): 32 µg/mL (≈ 94.9 µM); Activity [1]: > 67 µg/mL; MIC (Enterococcus faecium): 2 µg/mL (≈ 5.93 µM); MIC (Escherichia coli [21]): 32 µg/mL (≈ 94.9 µM)
